Assay results reported in US6365191B1, “Formulations of paclitaxel, its derivatives or its analogs entrapped into nanoparticles of polymeric micelles, process for preparing same and the use thereof” (Dabur Research Foundation, priority 1999, dated 2002).

Test: Stability of the resulting drug solutions (paclitaxel in nanoparticles of polymeric micelles)
Format: physicochemical
Experimental: (§1) The polymer (5 mg) was dissolved in 5 ml of the diluting fluid followed by the addition of the anionic surfactant sodium deoxycholate (5 mg) to obtain a clear solution. Paclitaxel solution in absolute alcohol (20 mg/ml) was then added to the solution of polymer and the surfactant to obtain drug concentrations of 0.1, 0.15 and 0.2 mg/ml. Different diluting fluids were tried and the stability of the resulting drug solutions are tabulated below:
(§2) The polymer (5 mg) was dissolved in 5 ml of the diluting fluid followed by the addition of the anionic surfactant sodium deoxycholate (5 mg) to obtain a clear solution. Paclitaxel solution in absolute alcohol (20 mg/ml) was then added to the solution of polymer and the surfactant to get drug concentrations of 0.2, 0.25 and 0.3 mg/ml. The stability of the resulting drug solutions are tabulated below:
as §1, with “of” for “of 0.1, 0.15 and”
as §2, with “solution. pH of the resulting solution was adjusted with sodium citrate.” for “solution.”, “obtain” for “get”, “0.2” for “0.2, 0.25 and 0.3”, “Results” for “The stability of the resulting drug solutions”
The requisite amount of polymer was dissolved in 5 ml of the diluting fluid followed by the addition of requisite amount of anionic surfactant sodium deoxycholate to obtain the concentrations shown in the table below. pH of the resulting solution was adjusted to 6.4-6.8 with sodium citrate. Paclitaxel solution in absolute alcohol (20 mg/ml) was then added to the solution of polymer and the surfactant to obtain drug concentrations of 0.2 mg/ml. Results are tabulated below:
The polymer (0.625 mg) was dissolved in 5 ml of the diluting fluid followed by the addition of the anionic surfactant sodium deoxycholate to obtain a clear solution. pH of the resulting solution was adjusted to 6.4-6.8 with sodium citrate.
Paclitaxel solution in absolute alcohol (20 mg/ml) was then added to the solution of polymer and the surfactant to obtain drug concentrations of 0.2 mg/ml. Results are tabulated below:
The requisite amount of the polymer was dissolved in 5 ml of the diluting fluid followed by the addition of requisite amount of the anionic surfactant sodium deoxycholate to obtain the concentrations shown in the table below. pH of the resulting solution was adjusted to 6.4-6.8 with sodium citrate. Paclitaxel solution in absolute alcohol (20 mg/ml) was then added to the solution of polymer and the surfactant to get drug concentrations of 0.2, 0.5, 0.6, 0.7, 0.8, 2.4, 3.2, 4.0, and 10 mg/ml. Results are tabulated below:
The polymer (1.5 mg) was dissolved in 5 ml of the diluting fluid followed by the addition of the anionic surfactant sodium to obtain concentrations of 0, 0.10, 0.15, 0.20 and 0.25 mg/ml. pH of the resulting solution was adjusted to 6.4-6.8 with sodium citrate. Paclitaxel solution in absolute alcohol (20 mg/ml) was then added to the solution of polymer and the surfactant to obtain drug concentrations of 0.6 mg/ml. Results are tabulated below:
The required amount of the drug solution (3 ml) is added to the vehicle to obtain a drug concentration of 0.6 mg/ml. The perfusion fluid is stable for more than 12 hrs without any apparent signs of precipitation of drug. Stability is also indicated by the fact that more than 90% of the drug is available in solution form at the end of 24 hrs, when analyzed by HPLC.

Stability (Examples 1-9, row 1: Water for Injection, polymer 1 mg/ml, sodium DOC 1 mg/ml, paclitaxel 0.10 mg/ml, 10% loading): <1 h
Stability (Examples 1-9, row 2: Water for Injection, polymer 1 mg/ml, sodium DOC 1 mg/ml, paclitaxel 0.15 mg/ml, 15% loading): <1 h
Stability (Examples 1-9, row 3: Water for Injection, polymer 1 mg/ml, sodium DOC 1 mg/ml, paclitaxel 0.20 mg/ml, 20% loading): <1 h
Stability (Examples 1-9, row 4: Normal Saline, polymer 1 mg/ml, sodium DOC 1 mg/ml, paclitaxel 0.10 mg/ml, 10% loading): <1 h
Stability (Examples 1-9, row 5: Normal Saline, polymer 1 mg/ml, sodium DOC 1 mg/ml, paclitaxel 0.15 mg/ml, 15% loading): <1 h
Stability (Examples 1-9, row 6: Normal Saline, polymer 1 mg/ml, sodium DOC 1 mg/ml, paclitaxel 0.20 mg/ml, 20% loading): <1 h
Stability (Examples 1-9, row 7: 5% Dextrose, polymer 1 mg/ml, sodium DOC 1 mg/ml, paclitaxel 0.10 mg/ml, 10% loading): >8 h
Stability (Examples 1-9, row 8: 5% Dextrose, polymer 1 mg/ml, sodium DOC 1 mg/ml, paclitaxel 0.15 mg/ml, 15% loading): >6 h
Stability (Examples 1-9, row 9: 5% Dextrose, polymer 1 mg/ml, sodium DOC 1 mg/ml, paclitaxel 0.20 mg/ml, 20% loading): >4 h
Stability (Examples 10-12, row 1: 5% Dextrose, polymer 1 mg/ml, sodium DOC 1 mg/ml, paclitaxel 0.20 mg/ml, 20% loading): >4 h
Stability (Examples 10-12, row 2: 5% Dextrose, polymer 1 mg/ml, sodium DOC 1 mg/ml, paclitaxel 0.25 mg/ml, 25% loading): <4 h
Stability (Examples 10-12, row 3: 5% Dextrose, polymer 1 mg/ml, sodium DOC 1 mg/ml, paclitaxel 0.30 mg/ml, 30% loading): <4 h
Stability (Examples 13-14, row 1: 5% Dextrose (pH 5.1), polymer 1 mg/ml, sodium DOC 1 mg/ml, paclitaxel 0.20 mg/ml, 20% loading): >4 h
Stability (Examples 13-14, row 2: 10% Dextrose (pH 5.1), polymer 1 mg/ml, sodium DOC 1 mg/ml, paclitaxel 0.20 mg/ml, 20% loading): >6 h
Stability (Examples 15-17, row 1: 10% Dextrose (pH 3.9), polymer 1 mg/ml, sodium DOC 1 mg/ml, sodium citrate 0.00 mg/ml, pH 6.28, paclitaxel 0.20 mg/ml): <1 h
Stability (Examples 15-17, row 2: 10% Dextrose (pH 3.9), polymer 1 mg/ml, sodium DOC 1 mg/ml, sodium citrate 0.06 mg/ml, pH 6.36, paclitaxel 0.20 mg/ml): >6 h
Stability (Examples 15-17, row 3: 10% Dextrose (pH 3.9), polymer 1 mg/ml, sodium DOC 1 mg/ml, sodium citrate 0.12 mg/ml, pH 6.53, paclitaxel 0.20 mg/ml): >4 h
Stability (Examples 19-23, row 1: 10% Dextrose, polymer 1 mg/ml, sodium DOC 1 mg/ml, pH 6.45, paclitaxel 0.20 mg/ml): >6 h
Stability (Examples 19-23, row 2: 10% Dextrose, polymer 0.5 mg/ml, sodium DOC 0.5 mg/ml, pH 6.44, paclitaxel 0.20 mg/ml): >6 h
Stability (Examples 19-23, row 3: 10% Dextrose, polymer 0.25 mg/ml, sodium DOC 0.25 mg/ml, pH 6.46, paclitaxel 0.20 mg/ml): >6 h
Stability (Examples 19-23, row 4: 10% Dextrose, polymer 0.125 mg/ml, sodium DOC 0.125 mg/ml, pH 6.47, paclitaxel 0.20 mg/ml): >6 h
Stability (Examples 19-23, row 5: 10% Dextrose, polymer 0.0625 mg/ml, sodium DOC 0.0625 mg/ml, pH 6.44, paclitaxel 0.20 mg/ml): <6 h
Stability (Examples 24-27, row 1: 10% Dextrose, polymer 0.125 mg/ml, sodium DOC 0.03125 mg/ml, pH 6.4-6.8, paclitaxel 0.20 mg/ml): <1 h
Stability (Examples 24-27, row 2: 10% Dextrose, polymer 0.125 mg/ml, sodium DOC 0.0625 mg/ml, pH 6.4-6.8, paclitaxel 0.20 mg/ml): <2 h
Stability (Examples 24-27, row 3: 10% Dextrose, polymer 0.125 mg/ml, sodium DOC 0.09375 mg/ml, pH 6.4-6.8, paclitaxel 0.20 mg/ml): >6 h
Stability (Examples 24-27, row 4: 10% Dextrose, polymer 0.125 mg/ml, sodium DOC 0.125 mg/ml, pH 6.4-6.8, paclitaxel 0.20 mg/ml): >6 h
Stability (Examples 28-35: 10% Dextrose, polymer 0.125 mg/ml, sodium DOC 0.125 mg/ml, pH 6.4-6.8, paclitaxel 0.20 mg/ml): >6 h
Stability (Examples 28-35: 10% Dextrose, polymer 0.125 mg/ml, sodium DOC 0.125 mg/ml, pH 6.4-6.8, paclitaxel 0.50 mg/ml): <4 h
Stability (Examples 28-35: 10% Dextrose, polymer 0.125 mg/ml, sodium DOC 0.125 mg/ml, pH 6.4-6.8, paclitaxel 0.80 mg/ml): <2 h
Stability (Examples 28-35: 10% Dextrose, polymer 0.125 mg/ml, sodium DOC 0.125 mg/ml, pH 6.4-6.8, paclitaxel 2.4 mg/ml): <1 h
Stability (Examples 28-35: 10% Dextrose, polymer 0.125 mg/ml, sodium DOC 0.125 mg/ml, pH 6.4-6.8, paclitaxel 3.2 mg/ml): <0.5 h
Stability (Examples 28-35: 10% Dextrose, polymer 0.125 mg/ml, sodium DOC 0.125 mg/ml, pH 6.4-6.8, paclitaxel 4.0 mg/ml): <0.25 h
Stability (Examples 28-35: 10% Dextrose, polymer 0.125 mg/ml, sodium DOC 0.125 mg/ml, pH 6.4-6.8, paclitaxel 10.0 mg/ml): <0.083 h
Stability (Examples 28-35: 10% Dextrose, polymer 0.2 mg/ml, sodium DOC 0.2 mg/ml, pH 6.4-6.8, paclitaxel 0.80 mg/ml): <3 h
Stability (Examples 28-35: 10% Dextrose, polymer 0.3 mg/ml, sodium DOC 0.3 mg/ml, pH 6.4-6.8, paclitaxel 0.50 mg/ml): >6 h
Stability (Examples 28-35: 10% Dextrose, polymer 0.3 mg/ml, sodium DOC 0.3 mg/ml, pH 6.4-6.8, paclitaxel 0.60 mg/ml): <6 h
Stability (Examples 28-35: 10% Dextrose, polymer 0.3 mg/ml, sodium DOC 0.3 mg/ml, pH 6.4-6.8, paclitaxel 0.70 mg/ml): <4 h
Stability (Examples 28-35: 10% Dextrose, polymer 0.3 mg/ml, sodium DOC 0.3 mg/ml, pH 6.4-6.8, paclitaxel 0.80 mg/ml): <2 h
Stability (Examples 36-40, row 1: 10% Dextrose, polymer 0.3 mg/ml, sodium DOC 0 mg/ml, pH 6.4-6.8, paclitaxel 0.60 mg/ml): <0.5 h
Stability (Examples 36-40, row 2: 10% Dextrose, polymer 0.3 mg/ml, sodium DOC 0.10 mg/ml, pH 6.4-6.8, paclitaxel 0.60 mg/ml): <1 h
Stability (Examples 36-40, row 3: 10% Dextrose, polymer 0.3 mg/ml, sodium DOC 0.15 mg/ml, pH 6.4-6.8, paclitaxel 0.60 mg/ml): <4 h
Stability (Examples 36-40, row 4: 10% Dextrose, polymer 0.3 mg/ml, sodium DOC 0.2 mg/ml, pH 6.4-6.8, paclitaxel 0.60 mg/ml): >8 h
Stability (Examples 36-40, row 5: 10% Dextrose, polymer 0.3 mg/ml, sodium DOC 0.25 mg/ml, pH 6.4-6.8, paclitaxel 0.60 mg/ml): >8 h
SMILES: CC(=O)O[C@H]1C(=O)[C@@]2(C)[C@H]([C@H](OC(=O)c3ccccc3)[C@]3(O)C[C@H](OC(=O)[C@H](O)[C@@H](NC(=O)c4ccccc4)c4ccccc4)C(C)=C1C3(C)C)[C@]1(OC(C)=O)CO[C@@H]1C[C@@H]2O [Paclitaxel, paclitaxel]
